Holding throughout (type): cell-based
Assay [1] concerns Wolbachia pipientis in C6/36 cell line. Put plainly: Anti-Wolbachia high-content assay. To be noted: read-out: EC50 Wolbachia pipientis in C6/36 cell line. The procedure:
After 15 minutes, all media was removed from each well and fresh media (no stain) was added. Imaging of each well was accomplished using a Perkin Elmer Operetta high-content imaging system. Five fields per well were imaged using a confocal 60× objective with the Fluorescein filter (excitation filter: 460-490 nm; emission filter: 500-550 nm). Images were analyzed using the Perkin Elmer Harmony software to score each intact cell on the basis of texture complexity of the cytoplasm. Full details can be found in: […]. et al, J. Biomol.

For assay [2], the system named is Staphylococcus aureus, MRSA (ATCC 33591). Put plainly: Antibacterial MIC assay (microbroth dilution, CLSI). The conditions noted are these: read-out: MIC Staphylococcus aureus, MRSA (ATCC 33591). In a few lines: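 Microbroth dilution per CLSI M07-A10/M100-S25 in cation-adjusted Mueller-Hinton broth, with 3% lysed horse blood added for S. pneumoniae. Inoculum from a 0.5 McFarland direct colony suspension, diluted to 5×10^5 CFU/mL in the well. Compounds were 2-fold serially diluted; MIC read against a growth control.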

The subject of assay [3] is Streptococcus pneumoniae (ATCC 49619). Described as above. In a few lines:
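CLSI broth microdilution: 2-fold compound dilutions in cation-adjusted Mueller-Hinton broth supplemented with 3% lysed horse blood for S. pneumoniae, inoculum 5×10^5 CFU/mL from a 0.5 McFarland direct colony suspension, with growth control.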

[4] abbreviates: C6/36 (wAlbB) cells, 7 days at 26° C., 50% reduction of Wolbachia.
Where [5] appears, read: microbroth dilution, cation-adjusted Mueller-Hinton broth, 35° C. for 16-20 hours.
The mark [6] stands for this setting: ATCC49619, microbroth dilution, 3% lysed horse blood, 35° C. for 16-20 hours, read-out: MIC Streptococcus pneumoniae (ATCC 49619).

Among the data in patent publication US10919916B2, “Boron-containing small molecules” (Bill & Melinda Gates Foundation, priority 2016, dated 2021) are EC50 and MIC values, retold here.

In general, MIC refers to the lowest concentration found to suppress growth.

SMILES strings stand for the structures. Converted amounts (≈) assume the structure as drawn. Read-outs that look alike come from different tables or passages of the source.

With `C=C[C@]1(C)C[C@@H](OC(=O)COc2ccc3c(c2F)B(O)OC3CNC(=O)OC(C)(C)C)[C@]2(C)[C@H](C)CC[C@]3(CCC(=O)[C@H]32)[C@@H](C)[C@@H]1O` (stereo partly drawn) [Compound 28, (3aR,4R,5R,7S,8S,9R,9aS,12R)-8-hydroxy-4,7,9,12-tetramethyl-3-oxo-7-vinyldecahydro-4,9a-propanocyclopenta[8]annulen-5-yl 2-((3-(((tert-butoxycarbonyl)amino)methyl)-7-fluoro-1-hydroxy-1,3-dihydrobenzo[c][1,2]oxaborol-6-yl)oxy)acetate], in assay [1] (setting [4]), the EC50 was above 1000 nM. The MIC in assay [2] (setting [5]) and in assay [3] (setting [6]) was 0.5 to 2 µg/mL (≈ 0.76 to 3.04 µM) each time.
`C=C[C@]1(C)C[C@@H](OC(=O)COc2ccc3c(c2Cl)B(O)OC3CNC(=O)OC(C)(C)C)[C@]2(C)[C@H](C)CC[C@]3(CCC(=O)[C@H]32)[C@@H](C)[C@@H]1O` (stereo partly drawn) [Compound 30, (3aR,4R,5R,7S,8S,9R,9aS,12R)-8-hydroxy-4,7,9,12-tetramethyl-3-oxo-7-vinyldecahydro-4,9a-propanocyclopenta[8]annulen-5-yl 2-((3-(((tert-butoxycarbonyl)amino)methyl)-7-chloro-1-hydroxy-1,3-dihydrobenzo[c][1,2]oxaborol-6-yl)oxy)acetate]: the EC50 in assay [1] (C6/36, […]) was above 1000 nM. For the same compound, the MIC in assay [2] lay in the range of 0.5 to 2 µg/mL (≈ 0.742 to 2.97 µM); in assay [3] (ATCC49619, read-out: MIC Streptococcus pneumoniae (ATCC 49619)) it was 4 to 32 µg/mL (≈ 5.93 to 47.5 µM).
As to `C=C[C@]1(C)C[C@@H](OC(=O)COc2ccc3c(c2)B(O)OC3)[C@]2(C)[C@H](C)CC[C@]3(C[C@H](O)C(=O)[C@H]32)[C@@H](C)[C@@H]1O` [Compound 35, (2S,3aR,4R,5R,7S,8S,9R,9aS,12R)-2,8-dihydroxy-4,7,9,12-tetramethyl-3-oxo-7-vinyldecahydro-4,9a-propanocyclopenta[8]annulen-5-yl 2-((1-hydroxy-1,3-dihydrobenzo[c][1,2]oxaborol-6-yl)oxy)acetate], the EC50 in assay [1] (setting [4]) amounted to 30 nM. Also, the MIC in assay [2] (setting [5]) was below 0.25 µg/mL; in assay [3] (setting [6]) it was 0.5 to 2 µg/mL (≈ 0.95 to 3.8 µM).
Consider `C=C[C@]1(C)C[C@@H](OC(=O)COc2ccc3c(c2F)B(O)OC3)[C@]2(C)[C@H](C)CC[C@]3(C[C@H](O)C(=O)[C@H]32)[C@@H](C)[C@@H]1O` [Compound 36, (2S,3aR,4R,5R,7S,8S,9R,9aS,12R)-2,8-dihydroxy-4,7,9,12-tetramethyl-3-oxo-7-vinyldecahydro-4,9a-propanocyclopenta[8]annulen-5-yl 2-((7-fluoro-1-hydroxy-1,3-dihydrobenzo[c][1,2]oxaborol-6-yl)oxy)acetate], for which the EC50 in assay [1] (setting [4]) was 193 nM. The MIC in assay [2] (setting [5]) was below 0.25 µg/mL; in assay [3] (setting [6]), 0.5 to 2 µg/mL (≈ 0.918 to 3.67 µM).
In the same order, the values of `C=C[C@]1(C)C[C@@H](OC(=O)COc2cc3c(cc2F)COB3O)[C@]2(C)[C@H](C)CC[C@]3(C[C@H](O)C(=O)[C@H]32)[C@@H](C)[C@@H]1O` [Compound 37, (2S,3aR,4R,5R,7S,8S,9R,9aS,12R)-2,8-dihydroxy-4,7,9,12-tetramethyl-3-oxo-7-vinyldecahydro-4,9a-propanocyclopenta[8]annulen-5-yl 2-((5-fluoro-1-hydroxy-1,3-dihydrobenzo[c][1,2]oxaborol-6-yl)oxy)acetate] are 52 nM, below 0.25 µg/mL and 0.5 to 2 µg/mL (≈ 0.918 to 3.67 µM).
In the same order, the values of `C=C[C@]1(C)C[C@@H](OC(=O)COc2ccc3c(c2)B(O)OC3)[C@]2(C)[C@H](C)CC[C@]3(C[C@H](F)C(=O)[C@H]32)[C@@H](C)[C@@H]1O` [Compound 38, (2S,3aR,4R,5R,7S,8S,9R,9aS,12R)-2-fluoro-8-hydroxy-4,7,9,12-tetramethyl-3-oxo-7-vinyldecahydro-4,9a-propanocyclopenta[8]annulen-5-yl 2-((1-hydroxy-1,3-dihydrobenzo[c][1,2]oxaborol-6-yl)oxy)acetate] are 9 nM, below 0.25 µg/mL and 0.5 to 2 µg/mL (≈ 0.946 to 3.78 µM).
In the same order, the values of `C=C[C@]1(C)C[C@@H](OC(=O)COc2ccc3c(c2F)B(O)OC3)[C@]2(C)[C@H](C)CC[C@]3(C[C@H](F)C(=O)[C@H]32)[C@@H](C)[C@@H]1O` [Compound 39, (2S,3aR,4R,5R,7S,8S,9R,9aS,12R)-2-fluoro-8-hydroxy-4,7,9,12-tetramethyl-3-oxo-7-vinyldecahydro-4,9a-propanocyclopenta[8]annulen-5-yl 2-((7-fluoro-1-hydroxy-1,3-dihydrobenzo[c][1,2]oxaborol-6-yl)oxy)acetate] are 84 nM, below 0.25 µg/mL and 0.5 to 2 µg/mL (≈ 0.915 to 3.66 µM).
With `C=C[C@]1(C)C[C@@H](OC(=O)COc2cc3c(cc2F)COB3O)[C@]2(C)[C@H](C)CC[C@]3(C[C@H](F)C(=O)[C@H]32)[C@@H](C)[C@@H]1O` [Compound 40, (2S,3aR,4R,5R,7S,8S,9R,9aS,12R)-2-fluoro-8-hydroxy-4,7,9,12-tetramethyl-3-oxo-7-vinyldecahydro-4,9a-propanocyclopenta[8]annulen-5-yl 2-((5-fluoro-1-hydroxy-1,3-dihydrobenzo[c][1,2]oxaborol-6-yl)oxy)acetate], the EC50 in assay [1] (setting [4]) is 18 nM. For the same compound, the figures for the minimal inhibitory concentration (MIC) in assay [2] (setting [5]) and in assay [3] (setting [6]) were below 0.25 µg/mL and 0.5 to 2 µg/mL (≈ 0.915 to 3.66 µM), respectively.
In the same order, the values of `C=C[C@]1(C)C[C@@H](OC(=O)COc2cc(CNC(=O)OC(C)(C)C)c3c(c2)B(O)OC3)[C@]2(C)[C@H](C)CC[C@]3(C[C@H](O)C(=O)[C@H]32)[C@@H](C)[C@@H]1O` [Compound 41, (2S,3aR,4R,5R,7S,8S,9R,9aS,12R)-2,8-dihydroxy-4,7,9,12-tetramethyl-3-oxo-7-vinyldecahydro-4,9a-propanocyclopenta[8]annulen-5-yl 2-((4-(((tert-butoxycarbonyl)amino)methyl)-1-hydroxy-1,3-dihydrobenzo[c][1,2]oxaborol-6-yl)oxy)acetate] are 625 nM, 0.5 to 2 µg/mL (≈ 0.763 to 3.05 µM) and 0.5 to 2 µg/mL (≈ 0.763 to 3.05 µM).
In the same order, the values of `C=C[C@]1(C)C[C@@H](OC(=O)CNc2ccc3c(c2)B(O)OC32CCNCC2)[C@]2(C)[C@H](C)CC[C@]3(CCC(=O)[C@H]32)[C@@H](C)[C@@H]1O` [Compound 53, (3aR,4R,5R,7S,8S,9R,9aS,12R)-8-hydroxy-4,7,9,12-tetramethyl-3-oxo-7-vinyldecahydro-4,9a-propanocyclopenta[8]annulen-5-yl (1-hydroxy-1H-spiro[benzo[c][1,2]oxaborole-3,4′-piperidin]-6-yl)glycinate] are above 1000 nM, 4 to 32 µg/mL (≈ 6.91 to 55.3 µM) and 0.5 to 2 µg/mL (≈ 0.864 to 3.46 µM).
In the same order, the values of `C=C[C@]1(C)C[C@@H](OC(=O)NC(=O)c2ccc3c(c2)B(O)OC3)[C@]2(C)[C@H](C)CC[C@]3(CCC(=O)[C@H]32)[C@@H](C)[C@@H]1O` [Compound 58, (3aR,4R,5R,7S,8S,9R,9aS,12R)-8-hydroxy-4,7,9,12-tetramethyl-3-oxo-7-vinyldecahydro-4,9a-propanocyclopenta[8]annulen-5-yl (1-hydroxy-1,3-dihydrobenzo[c][1,2]oxaborole-6-carbonyl)carbamate] are 56 nM, below 0.25 µg/mL and 0.5 to 2 µg/mL (≈ 0.955 to 3.82 µM).
Regarding `C=C[C@]1(C)C[C@@H](OC(=O)COc2ccc3c(c2)B(O)NN=C3)[C@]2(C)[C@H](C)CC[C@]3(C[C@H](O)C(=O)[C@H]32)[C@@H](C)[C@@H]1O` [Compound 70, (2S,3aR,4R,5R,7S,8S,9R,9aS,12R)-2,8-dihydroxy-4,7,9,12-tetramethyl-3-oxo-7-vinyldecahydro-4,9a-propanocyclopenta[8]annulen-5-yl 2-((1-hydroxy-1,2-dihydrobenzo[d][1,2,3]diazaborinin-7-yl)oxy)acetate], in assay [1] (setting [4]), the EC50 came out at 12 nM. Further, the MIC in assay [2] (setting [5]) was 0.5 to 2 µg/mL (≈ 0.929 to 3.71 µM); in assay [3] (setting [6]), below 0.25 µg/mL.
In the same order, the values of `C=C[C@]1(C)C[C@@H](OC(=O)COc2ccc3c(c2)B(O)N(C(=O)OC(C)(C)C)N=C3)[C@]2(C)[C@H](C)CC[C@]3(C[C@H](F)C(=O)[C@H]32)[C@@H](C)[C@@H]1O` [Compound 73, tert-butyl 7-(2-(((2S,3aR,4R,5R,7S,8S,9R,9aS,12R)-2-fluoro-8-hydroxy-4,7,9,12-tetramethyl-3-oxo-7-vinyldecahydro-4,9a-propanocyclopenta[8]annulen-5-yl)oxy)-2-oxoethoxy)-1-hydroxybenzo[d][1,2,3]diazaborinine-2(1H)-carboxylate] are 1 nM, below 0.25 µg/mL and below 0.25 µg/mL.
`C=C[C@]1(C)C[C@@H](OC(=O)COc2ccc3c(c2)B(O)NN=C3)[C@]2(C)[C@H](C)CC[C@]3(C[C@H](F)C(=O)[C@H]32)[C@@H](C)[C@@H]1O` [Compound 74, (2S,3aR,4R,5R,7S,8S,9R,9aS,12R)-2-fluoro-8-hydroxy-4,7,9,12-tetramethyl-3-oxo-7-vinyldecahydro-4,9a-propanocyclopenta[8]annulen-5-yl 2-((1-hydroxy-1,2-dihydrobenzo[d][1,2,3]diazaborinin-7-yl)oxy)acetate]: the EC50 in assay [1] (setting [4]) was 4 nM. Further, the minimal inhibitory concentration (MIC) in assay [2] (setting [5]) and in assay [3] (setting [6]) was below 0.25 µg/mL throughout.
